The test system of data set [1] is 10 human cell lines (nine cancer and one non-cancer cell line). Kind of data set: WST-1 cytotoxicity test, statements over all cell lines. The note with it: 100 µM, 48 h, studied cell lines. The data set is classed as cell-based. As for the experimental part: (§1) In this study, the cytotoxic effects of nine new compounds (2, 3, 4, 5, 6, 7, 8, 9, 10) were tested on 10 human cell lines (nine cancer and one non-cancer cell line). The cell lines were treated with each compound at concentrations of 10 µM and 100 µM for 48 h. The proliferation capacity of the treated cells was determined by WST-1 test and compared against the proliferation rate of the untreated control cells (100%).
(§2) The cell lines Jurkat, MOLT-4, A2780, A549, HT-29, PANC-1, HeLa, MCF-7, SAOS-2, and MRC-5 (all purchased from Sigma Aldrich, Czech Republic) were included in this study. All cell lines were maintained according to the provider’s guidelines, and plated and treated in 96-well plates (500 to 30 × 10^3 cells per well). The tested compounds 2, 3, 4, 5, 6, 7, 8, 9, and 10 were dissolved in 0.1% DMSO and kept in 10 mM stock solutions. Before use, the stock solution was diluted in culture media at ratios of 1:100 and 1:1000. The studied cell lines were treated with the compounds 2, 3, 4, 5, 6, 7, 8, 9, and 10 at concentrations of 10 and 100 µM for 48 h. Control cells were tested in culture media with and without DMSO (0.1%). The cells were also treated with 1 µM doxorubicin as a cytotoxicity control.
(§3) The WST-1 (2-(4-iodophenyl)-3-(4-nitrophenyl)-5-(2,4-disulfophenyl)-2H-tetrazolium, monosodium salt) test (Roche, Mannheim, Germany) was used according to the manufacturer’s protocol to determine cell viability in all 10 cell lines 48 h after treatment with the tested compounds. The cells were analyzed in a Tecan Infinite M200 spectrometer (Tecan Group, Männedorf, Switzerland) at 440 nm.
A general note: Formazan colour is commonly taken as a measure of viable cells.

Data set [2] in a line: WST-1 cytotoxicity test, HeLa. It is filed as cell-based. The note with it: human, HeLa cells, 48 h, WST-1, mean ± SD of three experiments, read-out: relative viability (%) compared to untreated control. On the procedure: as §1, §2, §3
A short description of data set [3]: WST-1 cytotoxicity test, MOLT-4. It is filed as cell-based. The settings on record: human, MOLT-4 cells, 48 h, WST-1, mean ± SD of three experiments, read-out: relative viability (%) compared to untreated control; for viability at 48 h, 10 µM: MOLT-4, 10 µM; for viability at 48 h, 100 µM: MOLT-4, 100 µM. On the procedure: as §1, §2, §3
Data set [4] is described as follows: WST-1 cytotoxicity test, PANC-1. The data set is classed as cell-based. The settings on record: human, PANC-1 cells, 48 h, WST-1, mean ± SD of three experiments, read-out: relative viability (%) compared to untreated control; for viability at 48 h, 10 µM: PANC-1, 10 µM; for viability at 48 h, 100 µM: PANC-1, 100 µM. As for the experimental part: as §1, §2, §3

The nature of data set [5]: WST-1 cytotoxicity test, MRC-5. The data set is classed as cell-based. The note with it: human, MRC-5 cells, 48 h, WST-1, mean ± SD of three experiments, read-out: relative viability (%) compared to untreated control; for viability at 48 h, 10 µM: MRC-5, 10 µM; for viability at 48 h, 100 µM: MRC-5, 100 µM. As for the experimental part:
as §1, §2, §3

For the next data set, the system named is MOLT-4 cells. The experiment in a line: Radioprotection in vitro, Annexin V/PI flow cytometry after irradiation. It is filed as cell-based, human. The settings on record: 60-min pre-treatment, 1 Gy; for viability at 100 µM: Homo sapiens, MOLT-4, light or radiation study, 24 h following irradiation, irradiated untreated 40%, non-irradiated control 92%, read-out: percentage of viable MOLT-4 cells (Annexin V and PI negative) after irradiation. An excerpt: Phosphatidylserine, a major component of the inner leaflet of the cytoplasmic membrane bilayers, is frequently used as an indicator of cell death. The externalization of this phospholipid can be detected through Annexin V, which binds to phosphatidylserine in the presence of calcium. Cell viability was quantified by Annexin V-Alexa Fluor® 488/propidium iodide (PI) staining and flow cytometry analysis to determine whether the tested compounds could prevent radiation-induced cell death in MOLT-4 cells. The percentage of viable cells was 92% for non-irradiated control (0.1% DMSO vehicle) and 40% for untreated irradiated cells (1 Gy) (Figure 2A).
Fresh 50 mM stock solutions of the compounds were prepared in DMSO (Sigma-Aldrich, St. Louis, MO, USA) before use in the study. For the radioprotection experiments, MOLT-4 cells were treated with 100 μM solutions of the novel compounds and irradiated after 60 min with a ^60Co γ-ray source (Chisotron Chirana, Prague, Czech Republic). The non-irradiated and irradiated control cells were treated with DMSO vehicle only (0.1%) and handled in parallel with the experimental cells. Non-irradiated control cells were handled in the same manner. Cell viability was determined by flow cytometry using an Alexa Fluor® 488 Annexin V/Dead Cell Apoptosis kit (Life Technologies, Grand Island, NY, USA) according to the manufacturer’s instructions. The Alexa Fluor® 488 Annexin V/Dead Cell Apoptosis kit employs the property of Alexa Fluor® 488 conjugated to Annexin V to bind to phosphatidylserine in the presence of Ca^2+, and the property of propidium iodide (PI) to enter cells with damaged cell membranes and bind to DNA. Measurement was performed using a CyAn (Beckman Coulter, Miami, FL, USA) flow cytometer. Listmode data was analyzed with the Kaluza Analysis v1.3 software (Beckman Coulter, Miami, FL, USA).
A general note: A flow cytometer gives signals particle by particle.

Data set [6] is described as follows: WST-1 cytotoxicity test, MCF-7. It is filed as cell-based. The note with it: human, MCF-7 cells, 48 h, WST-1, mean ± SD of three experiments, read-out: relative viability (%) compared to untreated control; for viability at 48 h, 10 µM: MCF-7, 10 µM; for viability at 48 h, 100 µM: MCF-7, 100 µM. On the procedure:
as §1, §2, §3

Another data set concerns BALB/c mice. The experiment in a line: Survival of whole-body irradiated mice. It is filed as in vivo. The note with it: female BALB/c mice; for day post-irradiation of onset of lethal effect / decline in survival: i.p. at 50% of MTD 5 min before 7.15 Gy, non-treated control 10 days; for survival at day 30 post-irradiation: n = 10, i.p. at 50% of MTD 5 min before 7.15 Gy, control 40%. On the procedure:
To estimate the radioprotective effect on whole-body irradiated mice, compounds 4 (50 mg/kg), 5 (100 mg/kg), 6 (50 mg/kg), 7 (100 mg/kg), 8 (1000 mg/kg), and 10 (325 mg/kg) were injected (intraperitoneally, i.p.) 5 min before receiving 7.15 Gy of gamma radiation. These compounds were selected based on the cytotoxicity screening in vitro, and applied at a dose corresponding to 50% of the MTD in vivo. […] The follow-up period was 30 days.
Adult female BALB/c mice (21 ± 0.8 g) were used for all experiments (Velaz a.s., Prague, Czech Rep.). All the performed methods were in accordance with NIRS Guidelines for the Care and Use of Laboratory Animals and approved by the Committee for animal rights of the Ministry of Defence of the Czech Republic no. ČJ MO 255172/2019-684800. The mice, arranged in groups of 10 animals each, received a dose of 7.15 Gy from a ^60Co gamma source (Chisotron, Chirana, Czech Republic) at a dose rate of 1.04 Gy/min. Non-irradiated and non-treated control groups were included. Their survival and health status were checked on a daily basis for 30 days.
Compounds 4 (50 mg/kg), 5 (100 mg/kg), 6 (50 mg/kg), 7 (100 mg/kg), 8 (1000 mg/kg), and 10 (325 mg/kg) were selected and administered i.p. 5 min before irradiation. The doses were prepared from 100 mg/mL stock before each experiment.

Counter-ions that a name gives are not always drawn.

With `OCCN1CCN(CC(O)CN2CCN(CCO)CC2)CC1` [Compound 8, 1.3-bis [4-(2-hydroxyethyl)piperazin-1-yl)propan-2-ol tetrahydrochloride], the “cytotoxic effect (in words)” value in data set [1] is “no significant cytotoxic effects”. Besides, the viability at 48 h, 10 µM amounted to 103 ± 4% in data set [2]; 106 ± 8% in data set [3]; 98 ± 9% in data set [4]; 95 ± 7% in data set [5]; 101 ± 5% in data set [6]. The viability at 48 h, 100 µM in data set [2] worked out at 100 ± 18%; in data set [3] it was 81 ± 6%; in data set [4], 117 ± 11%; in data set [5], 119 ± 16%; in data set [6], 96 ± 7%. Moreover, the viability at 100 µM with MOLT-4 cells is 57%. Moreover, in the data set on BALB/c mice, the “day post-irradiation of onset of lethal effect / decline in survival” value is given as > 12 days. The “survival at day 30 post-irradiation” value in the data set on BALB/c mice came out at 70%.
On to `Cc1cc(OCC(O)CN2CCN(CCO)CC2)ccc1Cl.Cl.Cl` (stereo not drawn) [Compound 4, 1-(4-chloro-3-methylphenoxy)-3-(4-(2-hydroxyethyl)piperazin-1-yl)propan-2-ol dihydrochloride], for which, in data set [1], the “cytotoxic effect (in words)” value was “no significant cytotoxic effects”. Moreover, the viability at 48 h, 10 µM in data set [2] came to 106 ± 2%; in data set [3], 88 ± 6%; in data set [4], 97 ± 7%; in data set [5], 97 ± 8%; in data set [6], 105 ± 4%. Besides, the viability at 48 h, 100 µM in data set [2] came to 137 ± 5%; in data set [3], 92 ± 6%; in data set [4] it was 111 ± 24%; in data set [5], 93 ± 5%; in data set [6], 90 ± 3%. Further, the viability at 100 µM in the data set with MOLT-4 cells amounted to 61%. In addition, the “day post-irradiation of onset of lethal effect / decline in survival” value in the data set with BALB/c mice is reported as > 12 days. Further, the “survival at day 30 post-irradiation” value in the data set with BALB/c mice was 50%.
Regarding `COc1ccc(NCCCN2CCN(CCO)CC2)cc1.Cl.Cl.Cl` [Compound 7, 2-(4-(3-((4-methoxyphenyl)amino)propyl)piperazin-1-yl)ethanol trihydrochloride], the “cytotoxic effect (in words)” value in data set [1] was “no significant cytotoxic effects”. Besides, the viability at 48 h, 10 µM in data set [2] turned out to be 96 ± 8%; in data set [3], 93 ± 3%; in data set [4], 99 ± 10%; in data set [5] it was 100 ± 3%; in data set [6] it was 105 ± 6%. In addition, the viability at 48 h, 100 µM in data set [2] turned out to be 132 ± 3%; in data set [3] it was 99 ± 3%; in data set [4], 116 ± 3%; in data set [5] it was 104 ± 3%; in data set [6], 104 ± 6%. Moreover, the viability at 100 µM with MOLT-4 cells worked out at 64%. Further, the “day post-irradiation of onset of lethal effect / decline in survival” value with BALB/c mice came out at 9 days. The “survival at day 30 post-irradiation” value with BALB/c mice was 0%.
With `Cl.Cl.OC(CNc1ccccc1)CNc1ccccc1` [Compound 9, 1,3-bis(phenylamino)propan-2-ol dihydrochloride], the “cytotoxic effect (in words)” value in data set [1] was “no significant cytotoxic effects”. In addition, the viability at 48 h, 10 µM in data set [2] stood at 99 ± 9%; in data set [3], 103 ± 8%; in data set [4], 93 ± 12%; in data set [5], 102 ± 8%; in data set [6], 100 ± 4%. Also, the viability at 48 h, 100 µM came to 90 ± 14% in data set [2]; 71 ± 4% in data set [3]; 118 ± 5% in data set [4]; 120 ± 16% in data set [5]; 98 ± 11% in data set [6]. Further, the “radioprotective effect in vitro (in words)” value with MOLT-4 cells (100 μM, MOLT-4) is reported as “no significant radioprotective effect”. Besides, the viability at 100 µM in the data set on MOLT-4 cells is 34%.
Consider `Cl.Cl.Cl.OCCN1CCN(CC(O)CNc2ccccc2)CC1` (stereo not drawn) [Compound 10, 1-(phenylamino]-3-[4-(2-hydroxyethyl)piperazin-1-yl)propan-2-ol trihydrochloride], for which, in data set [1], the “cytotoxic effect (in words)” value is “no significant cytotoxic effects”. Moreover, the viability at 48 h, 10 µM in data set [2] was 110 ± 7%; in data set [3], 112 ± 6%; in data set [4] it was 95 ± 7%; in data set [5], 102 ± 3%; in data set [6], 98 ± 2%. Further, the viability at 48 h, 100 µM was 121 ± 3% in data set [2]; 100 ± 4% in data set [3]; 111 ± 6% in data set [4]; 102 ± 8% in data set [5]; 96 ± 6% in data set [6]. Moreover, the viability at 100 µM in the data set with MOLT-4 cells was 51%. Moreover, the “day post-irradiation of onset of lethal effect / decline in survival” value in the data set on BALB/c mice is on record as > 12 days. Further, the “survival at day 30 post-irradiation” value in the data set with BALB/c mice came out at 30%.
